Experimental findings from patent publication US20210221774A1, “TREATMENT OF POST-TRAUMATIC SYNDROME DISORDER” (Aché Laboratórios Farmacêuticos S.A, priority 2017, published 2021) are described below.

In the test the test system is c-fos expression in key brain regions involved in stress response. As to the kind of experiment: Single Prolonged Stress (SPS) model, count of c-fos positive neurons in brain regions. The class given is in vivo. The settings on record: mice, IA1-29 30 mg/kg p.o. given before SPS, locus ceruleus, amygdala, hypothalamus, bed nuclei stria terminalis (FIG. 1). How it is done: The quinazolinone of the invention was named IA1-29 and was tested in an in vivo model that mimics the activation that occurs in the brain after a prolonged stress stimulus.
The effects of the administration of IA1-29 at 30 mg/kg p.o. in brain activation were assessed in mice subjected to the Single Prolonged Stress (SPS) model. The SPS protocol is a well established model of PTSD that combines multiple stressors (physical restraint, forced swim, predator scent and ether anesthesia (Borghans & Homberg, 2015; Yamamoto et al., 2009)). The activation of specific brain regions was determined by counting the number of neurons expressing the c-fos protein, an immediate early gene product that can be used as a marker of cell activation in individual neurons. […] The count of c-fos positive neurons in some of these regions can be visualized in FIG. 1. The experiment comprised three different groups (n=10 per group): mice not subjected to the SPS protocol (Sham), mice subjected to the SPS model (SPS) and animals submitted to the SPS protocol but pre-treated with IA1-29 at 30 mg/kg (IA1-29+SPS). The brain regions exemplified in FIG. 1 are locus ceruleus (FIG. 1A), amygdala (FIG. 1B), hypothalamus (FIG. 1C) and bed nuclei stria terminalis (FIG. 1D). […]

For `COc1ccccc1N1CCN(CCn2cnc3ccccc3c2=O)CC1` [IA1-29, 3-(2-(4-(2-methoxyphenyl)piperazine-1-yl)ethyl) quinazoline-4(3H)-one], the “SPS-induced c-fos expression in key brain regions involved in stress response (count of c-fos positive neurons)” value is given as “suppressed”.
